Source: patent US7510825B2, “Kits and methods for detection of apoptotic cells” (NST NeuroSurvival Technologies Ltd, priority 2000, dated 2009)

How the values were obtained:
[1] = tested on: C6-Glioma tumor; assay: Accumulation of DDC in apoptotic cells of glioma following irradiation; assay type: in vivo, mice; details: 20 h after radiation (6 gray)
[2] = tested on: Jurkat cells (T-cell leukemia, human); assay: Binding of DDC and PI to Jurkat cells treated with anti-Fas antibody, FACS; assay type: cell-based; details: anti-Fas antibody 0.1 μg/ml for 180 minutes
Protocol: a. Non Adherent Cells • 1. Inducing cells to undergo apoptosis. A negative control should be prepared by incubating cells in the absence of apoptosis induction agent. • 2. Washing the cells and adjusting the number of cells to 1×10^7/ml in PBS. • 3. Transferring 30 μl from the cell suspension to a suitable test tube for FACS analysis. • 4. Adding 260 μl of PBS and 5 μl of DDC to the tube and incubating for 15 minutes at room temperature (RT), protected from light. • 5. Adding 5 μl of Propidium Iodide (PI) and perform FACS analysis.
Analyzing DDC accumulation by flow cytometry using FACS apparatus that includes a UV laser. For DDC analysis: the UV detector excitation is at 356 nm and the emission is at 530 nm with a band pass of […]. […] The population should be separated into three groups: live cells will show a low level of fluorescence (background), apoptotic cells will show higher UV fluorescence and necrotic cells will show both red and higher UV fluorescence.
Jurkat cells (T-cell leukemia, human) were treated with anti-Fas antibody (0.1 μg/ml) for 180 minutes, Following incubation the cells were washed and stained with DDC (as detailed in DDC protocols, IIIA). […] Following incubation with anti-Fas antibody, most of the cells shifted to the lower right section (AII, EA) of higher fluorescence value, indicating increased staining with DDC. […]

[3] = tested on: C26 colon carcinoma tumors; assay: DDC binding versus TUNEL and H&E in colon carcinoma after Doxorubicin; assay type: in vivo, mice; details: 48 h after Doxorubicin 20 mg/kg; consecutive slides
Protocol: (§1) A. Administration of DDC in-vivo: Injection of 200 μl of DDC intravenously. Following 1-2 hours, animal is sacrificed, and the desired organ is placed in a test tube or on a small plate, suitable for liquid nitrogen freezing. The plate is then covered with an aluminum foil, and transferred to liquid nitrogen. Following 5-30 minutes the specimen is being frozen to −80° C. and kept at −80° C. for at least 16 hr. B. Analysis of the Specimen: • a. Whole organ imaging Ex-vivo whole organ fluorescence imaging may be carried out on freshly excised specimen, that can be analyzed under a stereomicroscope (such as Leica MZ FL III, Leica Switzerland). DDC may be visualized using 360cx and >420cm nm filter set. Emitted fluorescence can be imaged using appropriate camera and software, such as a Leica DC 300F Distal camera and images can be processed and analyzed by Leica QWin Lite software. • b. Histological analysis, from the frozen organ or tissue, 4 μm cryosections are prepared on slides. Analysis of the tissue sections can be performed using a fluorescence microscope with a UV filter characterized by excitation at 360-370 nm (band pass) and emission at 420 nm (barrier filter) In case that staining of the examined tissue is desired, the following procedures can be applied: […]

[4] = tested on: L5178-S (LY-S) murine lymphoma tumors; assay: Detection by DDC of tumor cell apoptosis in lymphoma-bearing mice after Taxol; assay type: in vivo; details: Taxol 20 mg/kg treated vs control animals; DDC i.v. 24 h after Taxol, sacrifice 2 h later
Protocol: as §1

[5] = tested on: ischemic brain, damaged neuronal cells; assay: DDC staining of ischemic damage following transient MCA occlusion; assay type: in vivo, rats; details: 2 h MCA occlusion and reperfusion, DDC at 22 hours
Protocol: A. Administration of DDC in-vivo: Injection of 200 μl of DDC intravenously. Following 1-2 hours, animal is sacrificed, and the desired organ is placed in a test tube or on a small plate, suitable for liquid nitrogen freezing. The plate is then covered with an aluminum foil, and transferred to liquid nitrogen. Following 5-30 minutes the specimen is being frozen to −80° C. and kept at −80° C. for at least 16 hr. B. Analysis of the Specimen: • a. Whole organ imaging Ex-vivo whole organ fluorescence imaging may be carried out on freshly excised specimen, that can be analyzed under a stereomicroscope (such as Leica MZ FL III, Leica Switzerland). […] Emitted fluorescence can be imaged using appropriate camera and software, such as a Leica DC 300F Distal camera and images can be processed and analyzed by Leica QWin Lite software. • b. […] Analysis of the tissue sections can be performed using a fluorescence microscope with a UV filter characterized by excitation at 360-370 nm (band pass) and emission at 420 nm (barrier filter) In case that staining of the examined tissue is desired, the following procedures can be applied:
Transient focal ischemia was induced by middle cerebral artery (MCA) occlusion and reperfusion. […] At 22 hours from MCA occlusion, neurological score was assessed and DDC was injected I.V. (as detailed in DDC protocols II-A) for a successive 2 h before sacrificing the animals. […]

[6] = tested on: tubular epithelial cells of the septic kidney; assay: Focal uptake of DDC in the septic kidney (cecal ligature and perforation); assay type: in vivo, mice; details: 24 h after cecal ligature and puncture
Protocol: as §1

SMILES: CN(C)c1cccc2c(S(=O)(=O)NC(CSSCC(NS(=O)(=O)c3cccc4c(N(C)C)cccc34)C(=O)O)C(=O)O)cccc12 (stereo not drawn) [DDC]
- binding to viable tumor cells or normal brain tissue [1]: not binding
- labeling of cells undergoing cell death within the glioma tumor [1]: specifically and selectively labeled cells undergoing cell death
- fluorescence (DDC accumulation) of treated versus control cells [2]: marked shift of fluorescence
- correlation of DDC staining with H&E and TUNEL staining [3]: highly correlated with both H&E (C) and TUNEL (B) staining
- DDC uptake into tumors [4]: marked increase of DDC uptake
- DDC staining around the ischemic core and in the non-damaged contra-lateral hemisphere [5]: No staining was detected
- DDC staining of the ischemic core ([5]; ex-vivo coronal section): high intensity staining
- DDC staining versus TUNEL staining [6]: detected early apoptotic cells where TUNEL staining is still negative
- identification of focal tubular cell injury ([6]; compared with H&E): clearly identified by DDC staining
